For this test, the target named is T1, Recombinant human LOXL3 (lysyl oxidase like 3) (Homo sapiens, UniProt P58215).
T1 construct: purchased R&D systems
T1 sequence (P58215 26-753): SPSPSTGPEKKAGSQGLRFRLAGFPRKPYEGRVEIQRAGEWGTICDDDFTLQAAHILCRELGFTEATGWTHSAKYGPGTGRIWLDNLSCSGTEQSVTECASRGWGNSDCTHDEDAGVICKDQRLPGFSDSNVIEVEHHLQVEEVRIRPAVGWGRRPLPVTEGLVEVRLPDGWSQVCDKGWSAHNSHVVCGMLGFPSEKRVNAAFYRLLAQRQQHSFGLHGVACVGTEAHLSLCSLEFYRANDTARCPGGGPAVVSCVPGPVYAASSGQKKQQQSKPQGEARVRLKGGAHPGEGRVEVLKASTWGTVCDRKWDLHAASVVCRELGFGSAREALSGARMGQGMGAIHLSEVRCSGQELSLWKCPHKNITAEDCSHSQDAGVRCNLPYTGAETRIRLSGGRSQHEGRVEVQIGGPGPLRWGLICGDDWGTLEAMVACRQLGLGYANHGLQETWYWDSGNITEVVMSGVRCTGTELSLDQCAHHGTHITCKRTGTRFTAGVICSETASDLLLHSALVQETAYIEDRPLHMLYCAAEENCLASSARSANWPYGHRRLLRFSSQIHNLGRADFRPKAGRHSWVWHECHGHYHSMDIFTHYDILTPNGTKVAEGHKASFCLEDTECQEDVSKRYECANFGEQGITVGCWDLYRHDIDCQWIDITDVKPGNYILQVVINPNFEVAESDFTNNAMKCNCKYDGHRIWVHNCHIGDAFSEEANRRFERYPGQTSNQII
The test is described as follows: LOXL3 inhibition assay, fluorometric (cadaverine / HRP / Amplex Red). The note with it: recombinant human LOXL3 150 nM; 30 min preincubation at 37° C.; 1 mM cadaverine; read-out: Activity Range LOXL3. It counts as biochemical. The procedure: The ability of compounds to inhibit one or more of the lysyl oxidases LOXL2 and/or LOXL3 was determined using a fluorometric assay. This assay measures the activity of lysyl oxidases by coupling the reaction with horseradish peroxidase-catalyzed […]. The activity assay protocol uses cadaverine as substrate that releases hydrogen peroxide upon transformation by the specific LOX family enzyme present in the sample. Hydrogen peroxide is in turn detected using a red fluorescence substrate for HRP-coupled reactions (Amplex Red Enzyme Assays, Thermo Scientific Fisher). This leads to increase in fluorescence that can be easily detected at Ex/Em=540/590 nm in a fluorescence microplate reader.
Recombinant human LOXL2 (lysyl oxidase like 2) and recombinant human LOXL3 (lysyl oxidase like 3) were purchased from R&D systems and assays were performed in 1.2 M urea, 50 mM sodium borate buffer pH 8.0, and 10 mM CaCl.
5 μl of freshly prepared reaction buffer were delivered to reaction wells. Compounds were resuspended in 100% DMSO at 10 mM and delivered into buffer using acoustic technology (Echo550; nanoliter range). A 3× solution of LOXL2 or LOXL3 in reaction buffer was prepared (“enzyme solution”) and 5 μL of enzyme solution was added into the reaction wells. Buffer only was added to column 1 for no protein control. Reactions were incubated for 30 minutes at 37° C. A 3× mixture of cadaverine, Amplex Red, and HRP (“Substrate/Detection Mix) was prepared and subsequently 5 μL of the mixture added to each reaction well. Progress of reactions was monitored for 60 minutes at 37° C. using Clariostar plate reader (ex 530-12, ems 600-40). For all activity assays, pan-LOX inhibitor CCT365623 (Tang et al, 2017) and LOXL2/LOXL3 inhibitor PAT-1251 (PharmaKea) were included as standards.
For the data analysis, the slope of the linear portion of the progress curve was calculated using Clariostar software. Typical analysis interval was between 8-30 min, but varied between experiments. The background-subtracted signals (No protein wells are considered as background) were converted to % activity relative to DMSO controls. Data was analyzed using GraphPad Prism 4 with “sigmoidal dose-response (variable slope)”; 4 parameters with Hill Slope. Constraints: Bottom=Constant equal to 0. Top=Must be less than 120.

Where only a bound is given, the exact number is not on record here.

In the case of `NCc1ccnc(S(=O)(=O)C[C@H]2C[C@@H](c3ccccc3)CN2S(=O)(=O)N2CCS(=O)(=O)CC2)c1` [Example 196B, 4-(((2R,4S)-2-(((4-(aminomethyl)pyridin-2-yl)sulfonyl)methyl)-4-phenylpyrrolidin-1-yl)sulfonyl)thiomorpholine 1,1-dioxide 2,2,2-trifluoroacetate], the IC50 is at most 500 nM.

`NCc1ccnc(S(=O)(=O)C[C@@H]2C[C@H](c3ccccc3)CN2S(=O)(=O)N2CCS(=O)(=O)CC2)c1` [Example 196A, 4-(((2S,4R)-2-(((4-(aminomethyl)pyridin-2-yl)sulfonyl)methyl)-4-phenylpyrrolidin-1-yl)sulfonyl)thiomorpholine 1,1-dioxide 2,2,2-trifluoroacetate]: the IC50 was at most 500 nM. The value for `NCc1ccnc(S(=O)(=O)C[C@@H]2C[C@H](c3ccccc3)CN2S(=O)(=O)N2CCS(=O)(=O)CC2)c1` (racemic) [Example 196, cis-4-((2-(((4-(Aminomethyl)pyridin-2-yl)sulfonyl)methyl)-4-phenylpyrrolidin-1-yl)sulfonyl)thiomorpholine 1,1-dioxide 2,2,2-trifluoroacetate] was at most 500 nM; that for `NCc1ccnc(S(=O)(=O)C[C@H]2C[C@@H](c3ccccc3)CN2S(=O)(=O)N2CCOCC2)c1` (single isomer, unassigned) [Example 195A] was at most 500 nM. Regarding `NCc1ccnc(S(=O)(=O)C[C@@H]2C[C@H](c3ccccc3)CN2S(=O)(=O)N2CCOCC2)c1` (racemic) [Example 195, Cis-(2-(((1-(Morpholinosulfonyl)-4-phenylpyrrolidin-2-yl)methyl)sulfonyl)pyridin-4-yl)methanamine 2,2,2-trifluoroacetate], the IC50 is at most 500 nM.

With `NCc1ccnc(S(=O)(=O)C[C@@H]2C[C@H](c3ccccc3)CN2S(=O)(=O)N2CCOCC2)c1` (single isomer, unassigned) [Example 195B], the IC50 was at most 500 nM.

The values above are taken from US12016864B2, “LOX enzyme inhibiting methods and compositions” (ANOVIA BIOSCIENCES, INC., priority 2021, dated 2024).
